Data on twelve molecules can be found in US8969303B2, “Tocotrienol esters” (First Tech International Limited, priority 2010, dated 2015).

Each structure is given as a SMILES string. Where only a bound is given, the exact number is not on record here.

What is called IC50 is the point on the concentration scale where inhibition reaches its midpoint. The term inhibition denotes the drop in the measured response relative to a control, in per cent.

For data set [1], the system named is +SA mammary epithelial cells. As to the kind of experiment: Antiproliferative MTT assay on +SA mammary epithelial cells. The conditions noted are these: for IC50: malignant mice +SA mammary cells, 24 hour treatment, MTT; for antiproliferative activity: +SA mammary cells, in words. The data set is classed as cell-based, mouse. The source says:
+SA mammary epithelial cell lines were serially passaged at subconfluent cell density. The +SA cell line was derived from an adenocarcinoma that developed spontaneously in a BALB/c female mouse. That cell line is discussed in more detail in Anderson, L. W., Danielson, K. G., Hosick, H. L. Eur. J. Cancer Clin. Oncol. 1981, 17, 1001-1008, Danielson, K G., Anderson, L. W., Hosick, H. L. Cancer Res. 1980, 40, 1812-1819.31, and Anderson, L. W., Danielson, K. G., Hosick, H. L. In Vitro. 1979, 15, 841-843. Cell culture conditions were similar to those described in detail in Shah, S. J., Gapor, A., Sylvester, P. W. Nutr. Cancer. 2003, 45, 236-246, Shah, S. J., Sylvester, P. W. Biochem. Cell. Biol. 2005, 83, 86-95, Wali, V. B., Sylvester, P. W. Lipids, 2007, 42, 1113-1123, and Wali, V. B., Bachawal, S. V., Sylvester, P. W. Exp. Biol. Med. (Maywood) 2009, 234, 639-650. Briefly, +SA cells were maintained in serum-free defined medium consisting of Dulbecco's modified Eagle's medium (DMEM)/F12 containing 5 mg/ml bovine serum albumin (BSA), […], 100 U/ml soybean trypsin inhibitor, 100 U/ml penicillin, 0.1 mg/ml streptomycin, […], and 10 ng/ml epidermal growth factor. For subculturing, cells were rinsed twice with sterile Ca^2+ and Mg^2+-free phosphate buffered saline (PBS) and incubated in 0.05% trypsin containing 0.025% EDTA in PBS for 5 minutes at 37° C. The released cells were centrifuged, resuspended in serum-free defined media and counted using a hemocytometer. A stock solution of the Compounds was prepared in DMSO. Once dissolved, this solution was added to a small volume of sterile 10% BSA in water and incubated overnight at 37° C. This solution conjugated to BSA was used to prepare various concentrations (0-40 μM) of tocotrienol analogs. DMSO was added to all treatment media such that the final DMSO concentration was the same in all treatment groups within a given experiment and was always less than 0.1%. For cytotoxicity studies, cells were seeded at a density of 5×10^4 cells/well (6 wells/group) in 24-well culture plates and allowed to grow in serum-free control defined media. After a 3 day incubation period (approximately 70% confluency), cells were divided equally into various treatment groups and exposed to their respective treatments for a 24 hour incubation period. Following the 24 hour treatment period, cell viability was measured using the MTT assay. All materials were purchased from Sigma Chemical Company (St. Louis, Mo.) unless otherwise stated.
+SA mammary epithelial cell viable number was determined by the 3-(4,5-dimethylthiazol-2-yl)-2,5-diphenyl tetrazolium bromide (MTT) colorimetric assay. On the day of assay, treatment medium was replaced with fresh growth medium containing 0.42 mg/ml MTT, and the cells in 24-well plates were incubated at 37° C. for 4 hours. Afterward, the medium was removed, and the MTT crystals were dissolved in isopropyl alcohol (1 ml/well). The optical density of each sample was read at 570 nm on a microplate reader (SpectraCount, Packard BioScience Company), against a blank prepared from cell-free cultures. The number of cells/well was calculated against a standard curve prepared by plating various concentrations of cells, as determined by hemocytometer, at the start of each experiment.
Differences among the various treatment groups in +SA cell cytotoxic studies were determined by analysis of variance (ANOVA) followed by Dunnett's t-test. The difference of P<0.05 was considered to be statistically significant as compared with vehicle-treated controls. Linear regression analysis of treatment effects on viable cell number in growth and cytotoxicity studies was used to determine the 50% growth inhibition concentration (IC50) for individual treatments.

Data set [2] is described as follows: Stability in phosphate buffer. The data set is classed as physicochemical. The conditions noted are these: phosphate buffer pH 7.4, 37° C. The protocol: The stability of each of α-tocotrienol and Compound 6 was studied at 37° C. in phosphate buffer (pH 7.4). In amber vials, 500 μg/mL of each compound were dissolved in the buffer and the solution was incubated at 37° C. At interval times (0, 0.5, 1, 2, 4, 6, and 24 h), 50 μL it samples were collected and equal volumes of methanol were added to each sample followed by HPLC analysis.
A Shimadzu HPLC system (Columbia, Md.) was used for quantification of α-tocotrienol and Compound 6. This system is composed of SIL 20-AHT autosampler, SPD-20A UV/VIS detector, and LC-20AB pump connected to a Dgu-20A3 degasser. Data acquisition was achieved by LC Solution software version 1.22 SP1 Shimadzu. The following chromatographic conditions were used: […] (250×4.6 mm id; Phenomenex, Torrance, Calif.), flow rate was adjusted to 1.0 mL/min, and λ was set at 295 nm. For α-tocotrienol solubility and stability studies, an isocratic elution with MeOH-EtOH—CH3CN (40:30:30, v/v/v) as mobile phase for 10 min. α-tocotrienol was eluted at 6.7 min. For the simultaneous separation of α-tocotrienol and Compound 6 the following gradient elution was also used starting with H2O— MeOH—N(Et)3 (10:90:0.05, v/v/v) for 5 min, followed by isocratic MeOH—N(Et)3 (100:0.05, v/v) for another 10 min. The retention times were 4 and 14.1 for Compound 6 and α-tocotrienol, respectively. Standard curves for α-tocotrienol and Compound 6 in MeOH were prepared in the range of 0.4-50 μg/mL and 1-1000 μg/mL, respectively. Each compound was quantified using its calibration curve for compounds peak area versus its concentration.

The test system of another data set is MDA-MB-231 cells. As to the kind of experiment: Wound healing anti-migratory assay. The data set is classed as cell-based. Conditions: Homo sapiens, single dose of 5 μM, 24 hours, read-out: inhibition of the migrated MDA-MB231 cells. The procedure:
The highly metastatic human breast cancer MDA-MB-231 cells were cultured in RPMI 1640 medium containing 10 mM HEPES, 4 mM L-glutamine, 10% fetal bovine serum, penicillin (100 IU mL-1), and streptomycin (50 μg mL-1), and grown in a 5% CO2 atmosphere at 37° C. Cells were plated onto sterile 24-well culture plates and allowed to recover for a confluent cell monolayer formed in each well (>95% confluence). Wounds were then inflicted to each cell monolayer using a sterile 200 μL pipette tip. Media were removed, cells monolayers were washed twice with PBS, and then fresh media containing test compounds were added to each well. Test compounds were prepared in DMSO at 5 μM concentration and added to the plates using DMSO as negative control. Tests were preformed in triplicate. The incubation was carried out for 24 hours under serum-starved conditions, after which the media was removed and the cells were fixed and stained using a Romanowski stain sold under the Diff Quick name (Dade Behring Diagnostics, Aguada, Puerto Rico). The number of cells which migrated on the scratched wound were counted under the microscope in three or more randomly selected fields (magnification: 400×). Final results are expressed as mean+/−SEM per 400× field.

The mark [3] stands for this setting: Mus musculus, Epithelial cell, 24 h.

Take `CC(C)=CCC/C(C)=C/CC/C(C)=C/CC[C@]1(C)CCc2cc(OC(=O)/C=C\C(=O)O)cc(C)c2O1` [Compound 8, (Z)-4-((R)-2,8-dimethyl-2-((3E,7E)-4,8,12-trimethyltrideca-3,7,11-trienyl)chroman-6-yloxy)-4-oxobut-2-enoic acid]: the IC50 in data set [1] (setting [3]) stood at 860 nM; in data set [1], 870 nM.
As to `CC(C)=CCC/C(C)=C/CC/C(C)=C/CC[C@]1(C)CCc2c(C)c(O)c(C)c(C)c2O1` [α-tocotrienol], in data set [2], the “stability in phosphate buffer (in words)” value is given as “highly unstable” and the “start of decomposition after dissolution” value is 1 h. In addition, the “chemical stability relative to the zero time concentration” value in data set [2] (over 24 h) is on record as “completely undetectable”.
Turning to `CC(C)=CCC/C(C)=C/CC/C(C)=C/CC[C@]1(C)CCc2cc(OC(=O)c3ccccc3)c(C)c(C)c2O1` [Compound 10, (R)-2,7,8-trimethyl-2-((3E,7E)-4,8,12-trimethyltrideca-3,7,11-trienyl)chroman-6-yl benzoate], the antiproliferative activity result in data set [1] is “inactive”. This molecule also returned an IC50 in data set [1] (setting [3]) of 6550 nM. In the data set with MDA-MB-231 cells, the inhibition at 5 µM is ~50%.
Consider `CC(=O)Oc1ccc(/C=C/C(=O)Oc2cc3c(c(C)c2C)O[C@](C)(CC/C=C(\C)CC/C=C(\C)CCC=C(C)C)CC3)cc1OC(C)=O` [Compound 12, 4-((E)-3-oxo-3-((R)-2,7,8-trimethyl-2-((3E,7E)-4,8,12-trimethyltrideca-3,7,11-trienyl)chroman-6-yloxy)prop-1-enyl)-1,2-phenylene diacetate], for which the antiproliferative activity entry in data set [1] was “inactive”. Besides, in data set [1] (setting [3]), the IC50 is > 40000 nM.
In turn, `CC(=O)Oc1cc(C(=O)Oc2cc3c(c(C)c2C)O[C@](C)(CC/C=C(\C)CC/C=C(\C)CCC=C(C)C)CC3)cc(OC(C)=O)c1OC(C)=O` [Compound 11, 5-(((R)-2,7,8-trimethyl-2-((3E,7E)-4,8,12-trimethyltrideca-3,7,11-trienyl)chroman-6-yloxy)carbonyl)benzene-1,2,3-triyl triacetate] yielded an IC50 in data set [1] (setting [3]) of 1720 nM.
Regarding `CC(C)=CCC/C(C)=C/CC/C(C)=C/CC[C@]1(C)CCc2cc(OC(=O)CC(C)CC(=O)O)c(C)c(C)c2O1` (stereo partly drawn) [Compound 9, 3-Methyl-5-oxo-5-((R)-2,7,8-trimethyl-2-((3E,7E)-4,8,12-trimethyltrideca-3,7,11-trienyl)chroman-6-yloxy)pentanoic acid], in data set [1], the antiproliferative activity entry is “inactive”. The same molecule displayed an IC50 in data set [1] (setting [3]) of 19200 nM.
Regarding `CC(C)=CCC/C(C)=C/CC/C(C)=C/CC[C@]1(C)CCc2c(C)c(OC(=O)c3ccc(C(=O)O)cc3C(=O)O)c(C)c(C)c2O1` [Compound 1, 4-(((R)-2,5,7,8-tetramethyl-2-((3E,7E)-4,8,12-trimethyltrideca-3,7,11-trienyl)chroman-6-yloxy)carbonyl)isophthalic acid], 1500 nM corresponded to half-maximal inhibition in data set [1] (setting [3]) (IC50). The inhibition at 5 µM with MDA-MB-231 cells is ~50%.
The molecule `CC(C)=CCC/C(C)=C/CC/C(C)=C/CC[C@]1(C)CCc2cc(OC(=O)/C=C\C(=O)O)c(C)c(C)c2O1` [Compound 7, (Z)-4-oxo-4-((R)-2,7,8-trimethyl-2-((3E,7E)-4,8,12-trimethyltrideca-3,7,11-trienyl)-chroman-6-yloxy)but-2-enoic acid] returned an IC50 in data set [1] (setting [3]) of 2300 nM.
Molecule `CC(C)=CCC/C(C)=C/CC/C(C)=C/CC[C@]1(C)CCc2cc(OC(=O)c3ccc(C(=O)O)cc3C(=O)O)c(C)c(C)c2O1` [Compound 2, 4-(((R)-2,7,8-trimethyl-2-((3E,7E)-4,8,12-trimethyltrideca-3,7,11-trienyl)chroman-6-yloxy)carbonyl)isophthalic acid] registered an IC50 in data set [1] (setting [3]) of 620 nM.
In data set [1] (setting [3]), `CC(C)=CCC/C(C)=C/CC/C(C)=C/CC[C@]1(C)CCc2cc(OC(=O)c3cc(C(=O)O)ccc3C(=O)O)c(C)c(C)c2O1` [Compound 4, 2-(((R)-2,7,8-trimethyl-2-((3E,7E)-4,8,12-trimethyltrideca-3,7,11-trienyl)chroman-6-yloxy)carbonyl)terephthalic acid] came in with an IC50 of 1440 nM.
In the case of `CC(C)=CCC/C(C)=C/CC/C(C)=C/CC[C@]1(C)CCc2cc(OC(=O)c3cc(C(=O)O)ccc3C(=O)O)cc(C)c2O1` [Compound 5, 2-(((R)-2,8-dimethyl-2-((3E,7E)-4,8,12-trimethyltrideca-3,7,11-trienyl)chroman-6-yloxy)-carbonyl)terephthalic acid], in data set [1] (setting [3]), the midpoint of inhibition, the IC50, lay at 1500 nM.
For `CC(C)=CCC/C(C)=C/CC/C(C)=C/CC[C@]1(C)CCc2c(C)c(OC(=O)c3cc(C(=O)O)ccc3C(=O)O)c(C)c(C)c2O1` [Compound 3, 2-(((R)-2,5,7,8-tetramethyl-2-((3E,7E)-4,8,12-trimethyltrideca-3,7,11-trienyl)chroman-6-yloxy)carbonyl)terephthalic acid], in data set [1] (setting [3]), the IC50 worked out at 1460 nM. The inhibition at 5 µM in the data set with MDA-MB-231 cells is ~50%.
